Data from ChEMBL document CHEMBL2331514, “Structure-based design and synthesis of novel pseudosaccharine derivatives as antiproliferative agents and kinase inhibitors” (Eur J Med Chem, 2013).

Assays:
[1] = Partition coefficient, log P of the compound; type: physicochemical; conditions: octanol/water
Hs-578T = assay: Cytotoxicity against human Hs578T cells assessed as growth inhibition at 10 uM after 48 hrs by SRB assay; type: functional; conditions: read-out: GI
UO-31 = assay: Cytotoxicity against human UO31 cells assessed as growth inhibition at 10 uM after 48 hrs by SRB assay; type: functional; conditions: UO-31, 48 h, read-out: GI
RXF 393 = assay: Cytotoxicity against human RXF393 cells assessed as growth inhibition at 10 uM after 48 hrs by SRB assay; type: functional; conditions: RXF 393, 48 h, read-out: GI
A498 = assay: Cytotoxicity against human A498 cells assessed as growth inhibition at 10 uM after 48 hrs by SRB assay; type: functional; conditions: A498, 48 h, read-out: GI
786-0 = assay: Cytotoxicity against human 786-0 cells assessed as growth inhibition at 10 uM after 48 hrs by SRB assay; type: functional; conditions: 786-0, 48 h, read-out: GI
SK-OV-3 = assay: Cytotoxicity against human SKOV3 cells assessed as growth inhibition at 10 uM after 48 hrs by SRB assay; type: functional; conditions: SK-OV-3, 48 h, read-out: GI
OVCAR-8 = assay: Cytotoxicity against human OVCAR8 cells assessed as growth inhibition at 10 uM after 48 hrs by SRB assay; type: functional; conditions: OVCAR-8, 48 h, read-out: GI
UACC-257 = assay: Cytotoxicity against human UACC257 cells assessed as growth inhibition at 10 uM after 48 hrs by SRB assay; type: functional; conditions: UACC-257, 48 h, read-out: GI
Malme-3M = assay: Cytotoxicity against human MALME-3M cells assessed as growth inhibition at 10 uM after 48 hrs by SRB assay; type: functional; conditions: read-out: GI
SNB-19 = assay: Cytotoxicity against human SNB19 cells assessed as growth inhibition at 10 uM after 48 hrs by SRB assay; type: functional; conditions: SNB-19, 48 h, read-out: GI
SF-539 = assay: Cytotoxicity against human SF539 cells assessed as growth inhibition at 10 uM after 48 hrs by SRB assay; type: functional; conditions: SF-539, 48 h, read-out: GI
SF-268 = assay: Cytotoxicity against human SF268 cells assessed as growth inhibition at 10 uM after 48 hrs by SRB assay; type: functional; conditions: SF-268, 48 h, read-out: GI
SW-620 = assay: Cytotoxicity against human SW620 cells assessed as growth inhibition at 10 uM after 48 hrs by SRB assay; type: functional; conditions: SW-620, 48 h, read-out: GI
HCT-15 = assay: Cytotoxicity against human HCT15 cells assessed as growth inhibition at 10 uM after 48 hrs by SRB assay; type: functional; conditions: HCT-15, 48 h, read-out: GI
HCT-116 = assay: Cytotoxicity against human HCT116 cells assessed as growth inhibition at 10 uM after 48 hrs by SRB assay; type: functional; conditions: HCT-116, 48 h, read-out: GI
HCC 2998 = assay: Cytotoxicity against human HCC2998 cells assessed as growth inhibition at 10 uM after 48 hrs by SRB assay; type: functional; conditions: HCC 2998, 48 h, read-out: GI
COLO 205 = assay: Cytotoxicity against human COLO205 cells assessed as growth inhibition at 10 uM after 48 hrs by SRB assay; type: functional; conditions: COLO 205, 48 h, read-out: GI
NCI-H322M = assay: Cytotoxicity against human NCI-H322M cells assessed as growth inhibition at 10 uM after 48 hrs by SRB assay; type: functional; conditions: read-out: GI
NCI-H23 = assay: Cytotoxicity against human NCI-H23 cells assessed as growth inhibition at 10 uM after 48 hrs by SRB assay; type: functional; conditions: NCI-H23, 48 h, read-out: GI
HOP-62 = assay: Cytotoxicity against human HOP62 cells assessed as growth inhibition at 10 uM after 48 hrs by SRB assay; type: functional; conditions: HOP-62, 48 h, read-out: GI
[2] = Cytotoxicity against human EKVX cells assessed as growth inhibition at 10 uM after 48 hrs by SRB assay; type: functional; conditions: read-out: GI

## COc1ccc(NC(=O)Nc2ccc(NC3=NS(=O)(=O)c4ccccc43)cc2)cc1
[1]
  logP: 2.99
Hs-578T
  inhibition of growth at 10 µM: -4%
UO-31
  inhibition of growth at 10 µM: 1%
RXF 393
  inhibition of growth at 10 µM: -2%
A498
  inhibition of growth at 10 µM: 17%
786-0
  inhibition of growth at 10 µM: 19%
SK-OV-3
  inhibition of growth at 10 µM: -20%
OVCAR-8
  inhibition of growth at 10 µM: -11%
UACC-257
  inhibition of growth at 10 µM: -19%
Malme-3M
  inhibition of growth at 10 µM: 6%
SNB-19
  inhibition of growth at 10 µM: -6%
SF-539
  inhibition of growth at 10 µM: 14%
SF-268
  inhibition of growth at 10 µM: -1%
SW-620
  inhibition of growth at 10 µM: -6%
HCT-15
  inhibition of growth at 10 µM: 3%
HCT-116
  inhibition of growth at 10 µM: 5%
HCC 2998
  inhibition of growth at 10 µM: -3%
COLO 205
  inhibition of growth at 10 µM: -36%
NCI-H322M
  inhibition of growth at 10 µM: 0%
NCI-H23
  inhibition of growth at 10 µM: 8%
HOP-62
  inhibition of growth at 10 µM: -12%
[2]
  inhibition of growth at 10 µM: 2%

## O=C(Nc1ccccc1)Nc1ccc(NC2=NS(=O)(=O)c3ccccc32)cc1
[1]
  logP: 2.23
Hs-578T
  inhibition of growth at 10 µM: -9%
UO-31
  inhibition of growth at 10 µM: 7%
RXF 393
  inhibition of growth at 10 µM: -6%
A498
  inhibition of growth at 10 µM: 16%
786-0
  inhibition of growth at 10 µM: 3%
SK-OV-3
  inhibition of growth at 10 µM: -7%
OVCAR-8
  inhibition of growth at 10 µM: -5%
UACC-257
  inhibition of growth at 10 µM: -1%
Malme-3M
  inhibition of growth at 10 µM: -1%
SNB-19
  inhibition of growth at 10 µM: -5%
SF-539
  inhibition of growth at 10 µM: 5%
SF-268
  inhibition of growth at 10 µM: -1%
SW-620
  inhibition of growth at 10 µM: -4%
HCT-15
  inhibition of growth at 10 µM: -7%
HCT-116
  inhibition of growth at 10 µM: -6%
HCC 2998
  inhibition of growth at 10 µM: -7%
COLO 205
  inhibition of growth at 10 µM: -19%
NCI-H322M
  inhibition of growth at 10 µM: -8%
NCI-H23
  inhibition of growth at 10 µM: 3%
HOP-62
  inhibition of growth at 10 µM: -11%
[2]
  inhibition of growth at 10 µM: 0%

## O=C(Nc1ccc(OC2=NS(=O)(=O)c3ccccc32)cc1)Nc1ccccc1Cl
[1]
  logP: 3.55
Hs-578T
  inhibition of growth at 10 µM: -1%
UO-31
  inhibition of growth at 10 µM: 33%
RXF 393
  inhibition of growth at 10 µM: 10%
A498
  inhibition of growth at 10 µM: 5%
786-0
  inhibition of growth at 10 µM: 11%
SK-OV-3
  inhibition of growth at 10 µM: -7%
OVCAR-8
  inhibition of growth at 10 µM: 1%
UACC-257
  inhibition of growth at 10 µM: -17%
Malme-3M
  inhibition of growth at 10 µM: 2%
SNB-19
  inhibition of growth at 10 µM: -9%
SF-539
  inhibition of growth at 10 µM: 6%
SF-268
  inhibition of growth at 10 µM: 14%
SW-620
  inhibition of growth at 10 µM: -5%
HCT-15
  inhibition of growth at 10 µM: 8%
HCT-116
  inhibition of growth at 10 µM: 1%
HCC 2998
  inhibition of growth at 10 µM: -5%
COLO 205
  inhibition of growth at 10 µM: -17%
NCI-H322M
  inhibition of growth at 10 µM: 2%
NCI-H23
  inhibition of growth at 10 µM: 8%
HOP-62
  inhibition of growth at 10 µM: -8%
[2]
  inhibition of growth at 10 µM: -3%
